Results taken from patent US20210079358A1, “ASSEMBLOID - 3D MIMETIC TISSUE STRUCTURE BASED ON PATIENT- DERIVED MULTIPLE CELL TYPES AND METHOD OF MANUFACTURING THE SAME” (POSTECH Research and Business Development Foundation, priority 2019, published 2021).
Entries after “also recorded” stand apart in the source; their conditions may differ.

How the values were obtained:
[1] = system: three-layered miniature bladders; assay: Cell proliferation in three-layered miniature bladders under Hh pathway manipulation; type: cell-based, mouse; settings: 50 μM Vismodegib or 100 nM SAG vs DMSO, 7 days
Experimental: (§1) To generate normal bladder organoids with stroma, normal bladder organoids cultured for a long time (>6 months) were mixed with mouse embryonic fibroblasts (MEFs) and endothelial cells (HULEC, ATCC) at 3.75×10^4 cells/μL and 5×10^3 cells/μL, respectively, along with 3 to 4 μL of Matrigel. Before additional analysis, these bladder organoids with stroma were cultured in an organoid medium in a spinning bioreactor for 7 days. The 12-well version of the spinning bioreactor was manufactured by 3D printing according to the method described in Qian, X. et al. Brain-Region-Specific Organoids Using Mini-bioreactors for Modeling ZIKV Exposure. Cell 165, 1238-1254, doi:10.1016/j.cell. 2016.04.032 (2016). In brief, individual components such as a plate cover (Project MJP 2500, 3D Systems, USA), a rotating shaft (Single Plus, Cubicon, Korea), a fixed rod (Single Plus, Cubicon, Korea) and a gear (Single Plus, Cubicon, Korea) were printed using a 3D printer in a stackable version, and the components were assembled to manufacture a spinning bioreactor. […]
(§2) Normal bladder organoids were treated with 50 μM Vismodegib (Abmole), 100 nM SAG (Millipore) or DMSO and cultured in a spinning bioreactor for 7 days. […] Capase-3/7-stained cells in the bladder tumor organoids were counted based on green fluorescence signals, and dose-response curves were generated using GraphPad Prism ver.6. […]

[2] = system: reconstituted bladder organoids with stroma; assay: Cell proliferation in reconstituted bladder organoids with stroma under Hh pathway manipulation; type: cell-based, mouse; settings: 50 μM Vismodegib or 100 nM SAG vs DMSO, 7 days
Experimental: as §1, §2

[3] = system: patient-derived bladder tumor organoids; assay: Growth of patient-derived bladder tumor organoids with or without tumor stroma treated with Hh or Bmp agonist; type: cell-based, human; settings: 300 nM SAG, 7 days
Experimental: Tumor tissues obtained from patients were washed with DPBS, and then washed twice with DMEM supplemented with 10% FBS. The washed tumors were minced and incubated in DMEM containing 10% FBS and collagenase I and II (20 mg/mL each) at 37° C. for 1 hour and ground for 5 minutes every 30 minutes. The isolated tissues were spun down at 1,500 rpm for 5 minutes, resuspended in ACK lysis buffer, and then incubated for 5 minutes at room temperature. Dissociated clusters were washed with DMEM containing 10% FBS and filtered through a 100 μm cell strainer. The dissociated cell clusters were spun down, resuspended in Matrigel (Growth Factor reduced) and plated in the middle of one well of a 6-well plate. The plated drop was solidified in an incubator at 37° C. for 15 minutes, and a 2.5 mL organoid medium [advanced DMEM/F-12 supplemented with 10 mM HEPES (pH 7.4), 10 mM nicotinamide, 1 mM N-acetyl-L-cysteine, GlutaMAX, 1% penicillin/streptomycin, 50 ng/mL mouse EGF, 0.5×B-27, 1 mM A8301 and 10 mM Y-27632] was added to the well. The medium was replaced once every 2 to 3 days. For passaging, 1 mg/mL collagenase/dispase was added to the medium, followed by incubation for 1 hour at 37° C. to digest the Matrigel. Subsequently, organoids were centrifuged at 1,500 rpm for 3 minutes, washed with PBS, and then spun down. Then, 0.05% trypsin-EDTA (Welgene) was added, organoids were incubated at 37° C. for 5 minutes, followed by mechanical grinding into small cells by pipetting. The organoids were passaged in a 1:3 or 1:4 ratio every 1 to 2 weeks.
To generate patient-derived tumor organoids with stroma, human tumor organoids were cultured for 10 days, and mixed with stromal components containing patient-derived CAFs and HULECs at concentrations of 5×10^4 cells/μL and 4×10^3 cells/μL, respectively, in Matrigel. And then, 5 μL drops of tumor organoids with stroma were cultured in an organoid medium in a spinning bioreactor for 7 days. […]

[4] = system: 3D bioprinted patient-derived bladder tumor organoids; assay: Tumor growth of 3D bioprinted patient-derived bladder tumor organoids treated with SAG or FK506; type: cell-based, human
Experimental: Tumor cells derived from patient-derived bladder tumor organoids were embedded in 40 μL Matrigel at a density of 5×10^5 cells/mL, and cultured in an organoid culture medium for 10 days. To prepare a bio-ink mixture for the reconstitution of tumor organoids with stroma by 3D bioprinting, 6 wells containing the embedded tumor organoids were treated with 0.5 mg/mL of a collagenase/dispase solution at 37° C. for 30 minutes, washed and centrifuged. The collected organoids were resuspended in 1 mL Matrigel (Growth Factor Reduced) containing patient-derived CAFs and HULECs at 4×10^7 cells/mL and 4×10^6 cells/mL, respectively. The reconstituted bio-ink was put into a sterilized 10 mL syringe with a 20-gauge needle, and stored on ice for less than 5 minutes before printing. A jet-type 3D printer (in vivo, Rokit, Korea) was used to reconstitute tumor organoids with stroma as described above. A G-code based script was written by Creator K software (Rokit, Korea) to print a 5×6 array of 10 μL drops. Each drop was dispensed on a parafilm at 8-mm intervals by extrusion. […]

[5] = system: BBN-induced mouse bladder tumor organoids; assay: Growth of BBN-induced mouse bladder tumor organoids treated with SAG or FK506; type: cell-based; settings: reconstituted mouse tumor organoids with stroma
[6] = system: 3D bioprinted patient-derived bladder tumor organoids; assay: Tumor cell apoptosis (caspase3) in 3D bioprinted patient-derived bladder tumor organoids treated with cisplatin; type: cell-based, human; settings: luminal and basal tumor-derived printed tumor organoids
Experimental: Normal bladder organoids were treated with 50 μM Vismodegib (Abmole), 100 nM SAG (Millipore) or DMSO and cultured in a spinning bioreactor for 7 days. Bladder tumor organoids were treated with 300 nM SAG, 5 μM FK506 (Cayman Chemical) or DMSO, and cultured in a spinning bioreactor for 7 days. Human bladder tumor organoids were cultured in an organoid medium for 7 days in a spinning bioreactor before treatment with chemotherapeutic drugs. Subsequently, tumor organoids were cultured for 48 hours in the presence of cisplatin (0, 0.2, 0.5, 1, 2, 5, 10, 50 and 100 μm, Sigma), gemcitabine (0, 0.2, 0.5, 1, 2, 5, 10, 50 and 100 μM, Sigma) or mitomycin C (0, 0.2, 0.5, 1, 2, 5, 10, 50 and 100 μM, Sigma). To produce dose-response curves for the three chemotherapeutic drugs, cell viability was assayed using a CellEvent™ Caspase-3/7 Green Detection Reagent (Thermo Fisher) according to the manufacturer's instructions. Forty-eight hours after treatment with cell therapeutic agent, bladder tumor organoids were fixed in 4% PFA at 4° C. for 15 minutes, washed with PBS three times, cultured in 30% sucrose overnight, and embedded in an OCT compound. Capase-3/7-stained cells in the bladder tumor organoids were counted based on green fluorescence signals, and dose-response curves were generated using GraphPad Prism ver.6. […]

Structure (SMILES)	proliferation of epithelial cells and stromal cells [1]	proliferation of epithelial cells and stromal cells [2]	growth of reconstituted tumor organoids of basal subtypes ([3]; basal P-2 and P-3, in the presence of tumor stroma)	response of basal subtype tumor organoids ([3]; basal subtype, without tumor stroma)	response of reconstituted luminal tumor organoids ([3]; reconstituted luminal tumor organoids)	tumor growth ([4]; bioprinted basal, only in the presence of stroma)	tumor growth ([4]; bioprinted, luminal P-1 tumor, regardless of tumor stroma)	tumor growth [5]	tumor cell apoptosis response ([6]; reconstituted with tumor stroma)	tumor cell apoptosis ([6]; without tumor stroma)
CS(=O)(=O)c1ccc(C(=O)Nc2ccc(Cl)c(-c3ccccn3)c2)c(Cl)c1 [Vismodegib]	decreases; also recorded: reduces	significant decrease								
CNC1CCC(N(Cc2cccc(-c3ccncc3)c2)C(=O)c2sc3ccccc3c2Cl)CC1 (stereo not drawn) [SAG]	increases	significant increase	significantly reduced	do not respond	do not respond	significantly inhibited	does not exhibit a significant change	inhibited		
N.N.[Cl][Pt][Cl] [cisplatin]									significantly reduced	increased
